The results in this text go back to patent US5726189A, “Method for imaging nicotinic acetylcholinergic receptors in the brain using radiolabeled pyridyl-7-azabicyclo [2.2.1]heptanes” (priority 1996, dated 1998).

This data set relates to nAChRs in mouse brain. Description: regional distribution of [18F]FPH in mouse brain after tail vein injection. Type of data set: in vivo. As for the experimental part:
The utility of [^18 F] FPH as an agent to label, in vivo, nAChRs in mouse brain was tested. Mice received 0.4 μCi of [^18 F]FPH (sp. act >2000 mCi/μmol) by tail vein injection. The regional distribution of the tracer in brain was assessed in the absence and presence of unlabeled epibatidine. […] In in vitro assays, the Ki for unlabeled FPH against nAChRs labeled with [^3 H] epibatidine was approximately 3 pM. […] FPH would be an excellent ligand for imaging nAChRs in living human brain.

The mark [1] stands for this setting: 30 minutes post injection, tail vein, 0.4 μCi.

Molecules are shown by their SMILES.

As to `[18F]c1ccc(C2CC3CCC2N3)cn1` (racemic) [[^18 F]FPH, (±)-exo-2-(2-[^18 F]fluoro-5-pyridyl)-7-azabicyclo[2.2.1]heptane], under setting [1], the uptake in cerebellum is less than 3 % ID/g, the uptake in cortex was 6.2 % ID/g, the uptake in hippocampus amounted to 6 % ID/g and the “uptake in superior colliculus” value was determined as 10 % ID/g. For the same molecule, under setting [1], the uptake in thalamus amounted to 11 % ID/g. The “binding in all regions after pretreatment with unlabeled epibatidine” value (pretreatment with unlabeled epibatidine 20 μg/kg) is given as ~ 3 % ID/g.
